Here are results for four compounds from patent US20130172320A1, “PYRIDO [4,3-B] INDOLE AND PYRIDO [3,4-B] INDOLE DERIVATIVES AND METHODS OF USE” (priority 2010, published 2013).

Assay [1] has as its target human recombinant histamine H1 receptor (Homo sapiens, UniProt P35367). Nature of the assay: Histamine H1 radioligand binding ([3H]Pyrilamine). The note with it: compound at 1 μM; 1.2 nM [3H]Pyrilamine; read-out: Binding data (Percentage inhibition) Histamine H1 (1 μM). On the procedure:
To evaluate in radioligand binding assays the activity of compounds of the invention, human recombinant histamine H1 receptor expressed in Chinese hamster ovary (CHO) cells (De Backer, M. et al, Biochem. Biophys. Res. Comm. 197(3):1601, 1993) in a modified Tris-HCl buffer (50 mM Tris-HCl, pH 7.4, 2 mM MgCl2, 100 mM NaCl, 250 mM Sucrose) was used. Compounds of the invention were incubated with 1.2 nM [^3H]Pyrilamine for 180 min at 25° C. Non-specific binding was estimated in the presence of 1 μM Pyrilamine. Receptor proteins were filtered and washed, the filters were then counted to determine [^3H]Pyrilamine specifically bound. Compounds were screened at 1 μM or lower, using 1% DMSO as vehicle. Biochemical assay results are presented as the percent inhibition of specific binding in Table 2.

The target of assay [2] is human recombinant dopamine D2L receptor (Homo sapiens, UniProt P14416). Kind of assay: Dopamine D2L radioligand binding ([3H]Spiperone). Conditions: compound at 1 μM; read-out: Percentage inhibition of ligand binding, Dopamine (1 μM) D2L. As to the method: To evaluate in radioligand binding assays the activity of compounds of the invention, human recombinant dopamine D2L receptor expressed in Chinese hamster ovary (CHO) cells (Grandy, D. et al, Proc. Natl. Acad. Sci. USA. 86:9762, 1989; Hayes, G. et al, Mol. Endocrinol. 6:920, 1992) in a modified Tris-HCl buffer (50 mM Tris-HCl, pH 7.4, 1.4 mM Ascorbic Acid, 0.001% BSA, 150 mM NaCl) was used. Compounds of the invention were incubated with 0.16 nM [^3H]Spiperone for 120 min at 25° C. Non-specific binding was estimated in the presence of 10 μM Haloperidol. Receptor proteins were filtered and washed, the filters were then counted to determine [^3H]Spiperone specifically bound. Compounds were screened at 1 μM or lower, using 1% DMSO as vehicle. Biochemical assay results are presented as the percent inhibition of specific binding in Table 3.
Chain of human recombinant dopamine D2L receptor (P14416 whole entry): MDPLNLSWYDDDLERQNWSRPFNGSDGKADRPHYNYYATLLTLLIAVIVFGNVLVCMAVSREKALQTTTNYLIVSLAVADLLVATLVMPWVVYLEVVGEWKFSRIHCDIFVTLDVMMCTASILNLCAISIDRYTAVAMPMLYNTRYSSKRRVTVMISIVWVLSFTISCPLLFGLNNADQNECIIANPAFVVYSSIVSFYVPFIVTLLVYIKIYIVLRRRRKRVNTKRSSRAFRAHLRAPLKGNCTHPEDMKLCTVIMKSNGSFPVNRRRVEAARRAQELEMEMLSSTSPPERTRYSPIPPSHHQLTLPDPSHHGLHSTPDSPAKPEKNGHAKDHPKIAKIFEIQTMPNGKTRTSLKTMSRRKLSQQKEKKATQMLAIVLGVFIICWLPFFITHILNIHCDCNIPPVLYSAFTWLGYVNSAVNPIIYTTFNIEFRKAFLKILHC

Assay [3] concerns the target T1, human recombinant serotonin (5-Hydroxytryptamine) 5-HT2A receptor (Homo sapiens, UniProt P28223).
T1 construct: expressed in transfected cells; host or cells: Chinese hamster ovary (CHO) K1 cells
Nature of the assay: Serotonin 5-HT2A radioligand binding ([3H]Ketanserin). The note with it: compound at 0.1 μM; read-out: Percentage inhibition of ligand binding, Serotonin (0.1 μM) 5-HT2A. As to the method: To evaluate in radioligand binding assays the activity of compounds of the invention, human recombinant serotonin (5-Hydroxytryptamine) 5-HT2A receptor expressed in Chinese hamster ovary (CHO) K1 cells (Bonhaus, D. et al, Br. J. Pharmacol. 115:622, 1995; Saucier, C. et al, J. Neurochem. 68:1998, 1997) in a 50 mM Tris-HCl buffer, pH 7.4, was used. Compounds of the invention were incubated with 0.5 nM [^3H]Ketanserin for 60 min at 25° C. Non-specific binding was estimated in the presence of 1 μM Mianserin. Receptor proteins were filtered and washed, the filters were then counted to determine [^3H]Ketanserin specifically bound. Compounds were screened at 1 μM or lower, using 1% DMSO as vehicle. Biochemical assay results are presented as the percent inhibition of specific binding in Table 4.

Assay [4] deals with T2, human recombinant serotonin (5-Hydroxytryptamine) 5-HT2C receptor (Homo sapiens, UniProt P28335).
T2 construct: expressed in transfected cells; host or cells: Chinese hamster ovary (CHO) K1 cells
T2 sequence (P28335 33-458): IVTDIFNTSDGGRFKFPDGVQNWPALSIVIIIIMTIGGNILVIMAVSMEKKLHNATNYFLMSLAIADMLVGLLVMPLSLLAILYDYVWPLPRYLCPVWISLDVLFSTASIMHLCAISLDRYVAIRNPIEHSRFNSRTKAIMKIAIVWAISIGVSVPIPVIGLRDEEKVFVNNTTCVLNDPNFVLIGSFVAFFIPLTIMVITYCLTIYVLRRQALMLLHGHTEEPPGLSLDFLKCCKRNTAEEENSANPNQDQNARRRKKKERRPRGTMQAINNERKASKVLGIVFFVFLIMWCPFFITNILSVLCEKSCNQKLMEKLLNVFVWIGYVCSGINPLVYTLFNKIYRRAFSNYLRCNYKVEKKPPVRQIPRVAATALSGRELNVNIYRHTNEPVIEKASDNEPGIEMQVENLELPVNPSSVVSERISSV
Nature of the assay: Serotonin 5-HT2C radioligand binding ([3H]Mesulergine). Conditions: compound at 0.1 μM; read-out: Percentage inhibition of ligand binding, Serotonin (0.1 μM) 5-HT2C. As to the method:
To evaluate in radioligand binding assays the activity of compounds of the invention, human recombinant serotonin (5-Hydroxytryptamine) 5-HT2C receptor expressed in Chinese hamster ovary (CHO) K1 cells (Wolf, W. et al, J. Neurochem. 69:1449, 1997) in a modified Tris-HCl buffer (50 mM Tris-HCl, pH 7.4, 0.1% Ascorbic Acid, 10 μM Pargyline) was used. Compounds of the invention were incubated with 1 nM [^3H]Mesulergine for 60 min at 25° C. Non-specific binding was estimated in the presence of 1 μM Mianserin. Receptor proteins were filtered and washed, the filters were then counted to determine [^3H]Mesulergine specifically bound. Compounds were screened at 1 μM or lower, using 1% DMSO as vehicle. Biochemical assay results are presented as the percent inhibition of specific binding in Table 4.

In assay [5] the target is T3, human recombinant serotonin (5-Hydroxytryptamine) 5-HT6 receptor (Homo sapiens, UniProt P50406).
T3 construct: expressed in transfected cells; host or cells: human HeLa cells
T3 sequence (P50406 whole entry): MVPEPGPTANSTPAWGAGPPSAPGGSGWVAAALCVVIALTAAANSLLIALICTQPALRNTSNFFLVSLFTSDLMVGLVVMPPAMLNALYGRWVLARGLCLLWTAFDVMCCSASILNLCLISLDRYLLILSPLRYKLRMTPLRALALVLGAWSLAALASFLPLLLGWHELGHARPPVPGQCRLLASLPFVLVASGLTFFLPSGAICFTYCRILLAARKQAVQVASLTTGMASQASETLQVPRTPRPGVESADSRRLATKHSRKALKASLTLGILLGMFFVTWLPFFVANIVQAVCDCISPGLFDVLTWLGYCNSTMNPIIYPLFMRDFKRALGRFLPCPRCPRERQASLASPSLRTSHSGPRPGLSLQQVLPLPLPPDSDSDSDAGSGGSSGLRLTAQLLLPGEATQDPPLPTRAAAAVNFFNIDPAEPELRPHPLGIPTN
Nature of the assay: Serotonin 5-HT6 radioligand binding ([3H]LSD). Conditions: compound at 0.1 μM; read-out: Percentage inhibition of ligand binding, Serotonin (0.1 μM) 5-HT6. As to the method: To evaluate in radioligand binding assays the activity of compounds of the invention, human recombinant serotonin (5-Hydroxytryptamine) 5-HT6 receptor expressed in human HeLa cells (Monsma, F. Jr. et al, Mol. Pharmacol. 43:320, 1993) in a modified Tris-HCl buffer (50 mM Tris-HCl, pH 7.4, 150 mM NaCl, 2 mM Ascorbic Acid, 0.001% BSA) was used. Compounds of the invention were incubated with 1.5 nM [3H]Lysergic acid diethylamide (LSD) for 120 min at 37° C. Non-specific binding was estimated in the presence of 5 μM Serotonin (5-HT). Receptor proteins were filtered and washed, the filters were then counted to determine [3H]LSD specifically bound. Compounds were screened at 1 μM or lower, using 1% DMSO as vehicle. Biochemical assay results are presented as the percent inhibition of specific binding in Table 4.

Assay [6] has as its target human recombinant serotonin (5-Hydroxytryptamine) 5-HT7 receptor (Homo sapiens, UniProt P34969). Kind of assay: Serotonin 5-HT7 radioligand binding ([3H]LSD). Conditions: compound at 0.1 μM; read-out: Percentage inhibition of ligand binding, Serotonin (0.1 μM) 5-HT7. On the procedure:
To evaluate in radioligand binding assays the activity of compounds of the invention, human recombinant serotonin (5-Hydroxytryptamine) 5-HT7 receptor expressed in Chinese hamster ovary (CHO) cells (Roth, B. et al, J. Pharmacol. Exp. Ther. 268:1403, 1994; Shen, Y. et al, J. Biol. Chem. 268:18200, 1993) in a modified Tris-HCl buffer (50 mM Tris-HCl, pH 7.4, 10 mM MgCl2, 0.5 mM EDTA) was used. Compounds of invention were incubated with 5.5 nM [^3H] Lysergic acid diethylamide (LSD) for 2 h at 25° C. Non-specific binding was estimated in the presence of 10 μM Serotonin (5-HT). Receptor proteins were filtered and washed, the filters were then counted to determine [^3H]LSD specifically bound. Compounds were screened at 1 μM or lower, using 1% DMSO as vehicle. Biochemical assay results are presented as the percent inhibition of specific binding in Table 4.

T1 sequence (P28223 whole entry): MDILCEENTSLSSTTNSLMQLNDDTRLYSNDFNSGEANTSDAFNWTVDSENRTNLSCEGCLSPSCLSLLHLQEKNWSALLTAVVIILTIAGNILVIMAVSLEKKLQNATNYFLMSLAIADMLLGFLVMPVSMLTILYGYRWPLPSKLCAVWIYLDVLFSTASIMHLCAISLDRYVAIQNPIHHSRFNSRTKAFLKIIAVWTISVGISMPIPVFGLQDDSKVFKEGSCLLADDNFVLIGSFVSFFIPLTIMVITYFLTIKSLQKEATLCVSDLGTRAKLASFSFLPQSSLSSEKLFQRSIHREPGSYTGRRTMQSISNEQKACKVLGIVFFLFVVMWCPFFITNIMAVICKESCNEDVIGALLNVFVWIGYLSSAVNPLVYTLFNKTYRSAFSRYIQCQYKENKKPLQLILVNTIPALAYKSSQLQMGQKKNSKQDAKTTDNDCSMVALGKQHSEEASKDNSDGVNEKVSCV
Chain of human recombinant histamine H1 receptor (P35367 whole entry): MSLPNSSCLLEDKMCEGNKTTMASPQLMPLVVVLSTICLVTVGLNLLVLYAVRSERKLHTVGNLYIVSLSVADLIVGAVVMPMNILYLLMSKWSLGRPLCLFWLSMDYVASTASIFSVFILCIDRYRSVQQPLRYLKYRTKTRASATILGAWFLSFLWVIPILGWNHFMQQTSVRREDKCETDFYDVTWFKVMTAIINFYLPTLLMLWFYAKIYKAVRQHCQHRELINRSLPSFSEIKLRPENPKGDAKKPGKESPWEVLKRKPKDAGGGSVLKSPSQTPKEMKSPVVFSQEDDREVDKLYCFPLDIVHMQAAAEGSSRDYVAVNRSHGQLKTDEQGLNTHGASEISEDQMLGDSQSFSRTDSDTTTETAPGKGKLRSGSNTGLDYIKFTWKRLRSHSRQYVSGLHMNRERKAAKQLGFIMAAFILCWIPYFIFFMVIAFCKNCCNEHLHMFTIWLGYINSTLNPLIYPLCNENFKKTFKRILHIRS
Chain of human recombinant serotonin (5-Hydroxytryptamine) 5-HT7 receptor (P34969 whole entry): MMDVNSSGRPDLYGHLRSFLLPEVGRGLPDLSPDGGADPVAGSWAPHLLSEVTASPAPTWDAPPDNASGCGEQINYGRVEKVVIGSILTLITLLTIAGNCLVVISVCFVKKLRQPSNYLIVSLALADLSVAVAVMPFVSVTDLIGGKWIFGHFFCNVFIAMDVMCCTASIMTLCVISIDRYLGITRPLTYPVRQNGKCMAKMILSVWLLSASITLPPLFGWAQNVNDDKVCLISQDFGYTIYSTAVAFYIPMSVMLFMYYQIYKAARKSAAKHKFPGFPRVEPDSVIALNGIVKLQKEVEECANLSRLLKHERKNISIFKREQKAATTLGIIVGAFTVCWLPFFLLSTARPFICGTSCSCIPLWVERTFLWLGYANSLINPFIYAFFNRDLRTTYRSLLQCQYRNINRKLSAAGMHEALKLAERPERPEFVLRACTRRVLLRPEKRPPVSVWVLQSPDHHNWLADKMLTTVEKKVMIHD

Consider `Cc1ccc2[nH]c3c(c2c1)CN(C)CC3(C)CCc1ccccc1` (stereo not drawn) [Compound 43], for which the inhibition (in general, the change of the read-out against control, counted positive when it falls) at 1 µM is 93% in assay [1] and 23% in assay [2]. For the same compound, the inhibition at 0.1 µM in assay [3] is 15%; in assay [4] it was -4%; in assay [5] it was 9%; in assay [6], -23%.
Consider `Cc1ccc2c(c1)c1c(n2C)C(C)(CCc2ccccc2)CN(C)C1` (stereo not drawn) [Compound 44], for which the inhibition at 1 µM turned out to be 101% in assay [1] and 33% in assay [2]. Further, the inhibition at 0.1 µM in assay [3] worked out at 4%; in assay [4] it was 12%; in assay [5], 17%; in assay [6] it was 29%.
With `Cc1ccc2c(c1)c1c(n2C)C(C)(CCc2ccc(C)nc2)CN(C)C1` (stereo not drawn) [Compound 45], the inhibition at 1 µM in assay [1] worked out at 99%; in assay [2], 5%. Besides, the inhibition at 0.1 µM was 1% in assay [3], 6% in assay [4], -4% in assay [5] and -6% in assay [6].
As for `Cc1ccc2[nH]c3c(c2c1)CN(C)CC3(C)CCc1ccc(C)nc1` (stereo not drawn) [Compound 46, 2,4,8-Trimethyl-4-[2-(6-methyl-pyridin-3-yl)-ethyl]-2,3,4,5-tetrahydro-1H-pyrido[4,3-b]indole], the figures for the inhibition at 1 µM in assay [1] and in assay [2] were 34% and 3%, respectively. Further, the inhibition at 0.1 µM in assay [3] is 7%; in assay [4], 8%; in assay [5] it was 6%; in assay [6], -10%.
